According to BindingDB's records for doi:10.1016/j.bioorg.2015.06.003 (Gwangju Institute of Science and Technology, 2015):

Target: T1, P2X purinoceptor 7 (Homo sapiens, UniProt Q99572)
T1 sequence (Q99572 whole entry): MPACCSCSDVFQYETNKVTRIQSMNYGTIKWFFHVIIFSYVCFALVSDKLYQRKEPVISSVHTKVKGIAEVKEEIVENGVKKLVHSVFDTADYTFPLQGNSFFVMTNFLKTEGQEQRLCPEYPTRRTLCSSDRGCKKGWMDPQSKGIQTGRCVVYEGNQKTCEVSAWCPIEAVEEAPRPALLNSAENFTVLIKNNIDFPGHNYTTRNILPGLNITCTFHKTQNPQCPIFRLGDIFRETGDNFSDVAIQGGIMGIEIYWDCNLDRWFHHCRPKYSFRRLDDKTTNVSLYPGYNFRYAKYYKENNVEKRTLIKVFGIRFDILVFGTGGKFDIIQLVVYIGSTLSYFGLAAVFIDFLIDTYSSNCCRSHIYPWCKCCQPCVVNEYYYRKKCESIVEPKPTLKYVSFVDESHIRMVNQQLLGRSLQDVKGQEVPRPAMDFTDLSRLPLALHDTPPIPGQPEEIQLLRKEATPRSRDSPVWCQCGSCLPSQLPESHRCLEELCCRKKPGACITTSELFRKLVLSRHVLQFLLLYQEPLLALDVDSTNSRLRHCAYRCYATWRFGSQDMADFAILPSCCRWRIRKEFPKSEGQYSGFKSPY
Experiment: Ethidium Bromide Uptake Assay
Settings: pH 7.4
Method: hP2X7-expressing HEK 293 cells were re-suspended at 2.5 × 10^6 cells/mL in assay buffer composed of 10 mM HEPES, 5 mM N-methyl-D-glutamine, 5.6 mM KCl, 10 mM D-glucose, and 0.5 mM CaCl2 (pH 7.4) supplemented with either 280 mM sucrose or 140 mM NaCl, and an 80 µL aliquot was added to each well of a 96-well plate. To each compound were added and KN-62 as the positive control, followed by the hP2X7R agonist benzoyl ATP (BzATP). The plates were incubated at 37 °C for 2 h and the cellular accumulation of ethidium ion was determined by measuring fluorescence (excitation = 530 nm; emission = 590 nm).

| SMILES | IC50 [nM] |
| --- | --- |
| CC12CC3CC(C)(C1)CC(C(=O)NNc1ncnc4ccccc14)(C3)C2 [3,5-Dimethyl-N'-(quinazolin-4-yl)adamantane-1-carbohydrazide (9k)] | 5500 |
| CC12CC3CC(C)(C1)CC(C(=O)NNc1nc(Cl)nc4nc[nH]c14)(C3)C2 [N'-(2-Chloro-7H-purin-6-yl)-3,5-dimethyladamantane-1-carbohydrazide (9o)] | 176 |
| CC12CC3CC(C)(C1)CC(C(=O)NNc1ncnc4nc[nH]c14)(C3)C2 [3,5-Dimethyl-N'-(7H-purin-6-yl)adamantane-1-carbohydrazide (9n)] | 2880 |

More lines, now with the values ahead:

| IC50 [nM] | SMILES |
| --- | --- |
| 3700 | CC12CC3CC(C)(C1)CC(C(=O)NNc1cnc4ccccc4c1)(C3)C2 [3,5-Dimethyl-N'-(quinolin-3-yl)adamantane-1-carbohydrazide (9h)] |
| 2900 | CC12CC3CC(C)(C1)CC(C(=O)NNc1ccc4ccccc4n1)(C3)C2 [3,5-Dimethyl-N'-(quinolin-2-yl)adamantane-1-carbohydrazide (9i)] |
| 1100 | CC12CC3CC(C)(C1)CC(C(=O)NNc1ccnc4c(Cl)cccc14)(C3)C2 [N'-(8-Chloroquinoline-4-yl)-3,5-dimethyladamantanehydrazide (9j)] |
| 726 | CC12CC3CC(C)(C1)CC(C(=O)NNc1ccnc4ccccc14)(C3)C2 [3,5-Dimethyl-N'-(quinolin-4-yl)adamantane-1-carbohydrazide (9g)] |
